One assay addresses T1, DYRK1A (Homo sapiens, UniProt Q13627).
T1 construct: GST-fusion or His-tag (not specified per kinase); purchased ProQinase GmbH; host or cells: Sf9 insect cells or E. coli (not specified per kinase)
Kind of assay: Radiometric protein kinase assay (33PanQinase Activity Assay), DYRK1A. The format is biochemical. Particulars: for IC50: class by IC50 on DYRK1A, from dose-response curves, read-out: Potency Class DYRK1A; for Selectivity Class DYRK1A vs. CLK1: ratio of IC50 on CLK1 over IC50 on DYRK1A; for Selectivity Class DYRK1A vs. DYRK1B: ratio of IC50 on DYRK1B over IC50 on DYRK1A. As to the method:
The IC50 profile of all compounds was determined using 12 protein kinases (CDK2/cyclin E, CK1ε, CLK1, 2, 3, 4, DYRK1A, 1B, 2, 3, 4, GSK3β).
(§1) The compounds were provided as […] in 100% DMSO. Prior to testing, the 1 μM stock solutions were subjected to a serial, semi-logarithmic dilution using 100% DMSO as a solvent. […] In the process, 90 μl H2O were added to each well of each compound dilution plate. To minimize potential precipitation, the H2O was added to each plate only a few minutes before the transfer of the compound solutions into the assay plates. The plate was shaken thoroughly, resulting in a compound dilution plate/10% DMSO.
(§2) For the assays (see below), 5 μL solution from each well of the compound dilution plates/10% DMSO were transferred into the assay plates. The final volume of the assay was 50 μL. All compounds were tested at 10 final assay concentrations in the range from 10 μM to 30 nM. The final DMSO concentration in the reaction cocktails was 1% in all cases.
(§3) All protein kinases provided by ProQinase were expressed in Sf9 insect cells or in E. coli as recombinant GST-fusion proteins or His-tagged proteins, either as full-length or enzymatically active fragments. All kinases were produced from human cDNAs and purified by either GSH-affinity chromatography or immobilized metal. Affinity tags were removed from a number of kinases during purification. The purity of the protein kinases was examined by SDS-PAGE/Coomassie staining, the identity was checked by mass spectroscopy.
(§4) A radiometric protein kinase assay (33PanQinase® Activity Assay) was used for measuring the kinase activity of the 12 protein kinases. All kinase assays were performed in 96-well FlashPlates™ from PerkinElmer (Boston, MA, USA) in a 50 μL reaction volume. The reaction cocktail was pipetted in four steps in the following order: • 25 μL of assay buffer (standard buffer/[γ-^33P]-ATP), • 10 μL of ATP solution (in H2O), • 5 μL of test compound (in 10% DMSO), • 10 μL of enzyme/substrate mixture.
(§5) The reaction cocktails were incubated at 30° C. for 60 minutes. The reaction was stopped with 50 μL of 2% (v/v) H3PO4, plates were aspirated and washed two times with 200 μL 0.9% (w/v) NaCl. Incorporation of ^33Pi was determined with a microplate scintillation counter (Microbeta, Wallac). The IC50 values for all compounds were calculated from the dose response curves

For a further assay, the target named is T2, CLK1 (Homo sapiens, UniProt P49759).
T2 construct: GST-fusion or His-tag (not specified per kinase); purchased ProQinase GmbH; host or cells: Sf9 insect cells or E. coli (not specified per kinase)
T2 sequence (P49759 whole entry, the tested form may be a part): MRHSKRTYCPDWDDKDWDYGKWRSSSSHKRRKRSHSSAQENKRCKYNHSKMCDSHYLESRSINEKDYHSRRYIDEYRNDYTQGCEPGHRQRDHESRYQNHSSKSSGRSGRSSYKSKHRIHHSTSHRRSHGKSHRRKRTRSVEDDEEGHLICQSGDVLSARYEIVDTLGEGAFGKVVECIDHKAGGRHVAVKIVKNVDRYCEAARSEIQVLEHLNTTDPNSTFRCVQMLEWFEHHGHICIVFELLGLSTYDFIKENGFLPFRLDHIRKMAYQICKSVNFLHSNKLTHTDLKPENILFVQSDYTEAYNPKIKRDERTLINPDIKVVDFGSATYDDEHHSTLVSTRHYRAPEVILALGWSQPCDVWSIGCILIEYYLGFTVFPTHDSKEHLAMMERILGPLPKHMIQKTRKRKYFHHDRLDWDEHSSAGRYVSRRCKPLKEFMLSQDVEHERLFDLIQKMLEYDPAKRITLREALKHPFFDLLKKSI
Kind of assay: Radiometric protein kinase assay (33PanQinase Activity Assay), CLK1. Particulars: class by IC50 on CLK1, from dose-response curves; read-out: Potency Class CLK1. It is filed as biochemical. As to the method: Assays were performed by ProQinase GmbH (Engesserstr. 4, D-79108 Freiburg, Germany. www.proqinase.com). The IC50 profile of all compounds was determined using 12 protein kinases (CDK2/cyclin E, CK1ε, CLK1, 2, 3, 4, DYRK1A, 1B, 2, 3, 4, GSK3β).
as §1, §2, §3, §4, §5
As a parameter for assay quality, the Z′-factor (Zhang et al., J. Biomol. Screen. 2: 67-73, 1999) for the low and high controls of each assay plate (n=8) was used. ProQinase's criterion for repetition of an assay plate is a Z′-factor below 0.4 (Iversen et al., J. Biomol. Screen. 3: 247-252, 2006).

From patent US20250340538A1, “IMIDAZOLONE DERIVATIVES AS INHIBITORS OF PROTEIN KINASES IN PARTICULAR DYRK1A, CLK1 AND/OR CLK4” (PERHA PHARMACEUTICALS, priority 2021, published 2025) come the findings set out here.

Counter-ions that a name gives are not always drawn. Some results are limits rather than exact numbers.

For `CC(C)C[C@@H](CF)NC1=N/C(=C\c2ccc3nccnc3c2)C(=O)N1` [Compound 15, (4Z)-2-[[(1S)-1-(Fluoromethyl)-3-methyl-butyl]amino]-4-(quinoxalin-6-ylmethylene)-1H-imidazol-5-one], at DYRK1A, the IC50 is over 0.05 µM; the “Selectivity Class DYRK1A vs. CLK1” value is “III (ratio between 0.5 and 2 fold)”; the “Selectivity Class DYRK1A vs. DYRK1B” value is “III (ratio between 0.5 and 2 fold)”. Also, the IC50 at CLK1 is over 0.05 µM.
Consider `O=C1NC(NCc2ccccc2)=N/C1=C\c1ccc2nccnc2c1` [Compound 21], for which, at DYRK1A, the IC50 was over 0.05 µM; the “Selectivity Class DYRK1A vs. CLK1” value is “III (ratio between 0.5 and 2 fold)”; the “Selectivity Class DYRK1A vs. DYRK1B” value is “II (ratio between 2 and 10 fold)”. Moreover, the IC50 on CLK1 was over 0.05 µM.
Take `O=C1NC(NCc2ccccc2C(F)(F)F)=N/C1=C\c1ccc2nccnc2c1` [Compound 22, (4Z)-4-(quinoxalin-6-ylmethylene)-2-[[2-(trifluoromethyl)phenyl]methylamino]-1H-imidazol-5-one]: on DYRK1A, the IC50 is over 0.05 µM; the “Selectivity Class DYRK1A vs. CLK1” value is “III (ratio between 0.5 and 2 fold)”; the “Selectivity Class DYRK1A vs. DYRK1B” value is “II (ratio between 2 and 10 fold)”. Also, the IC50 at CLK1 is over 0.05 µM.
For the compound `O=C1NC(N[C@H]2c3ccccc3C[C@@H]2O)=N/C1=C\c1ccc2nccnc2c1` [Compound 23, (4Z)-2-[[(1S,2S)-2-hydroxyindan-1-yl]amino]-4-(quinoxalin-6-ylmethylene)-1H-imidazol-5-one], on DYRK1A, the IC50 was in the range of 0.01 to 0.025 µM; the “Selectivity Class DYRK1A vs. CLK1” value is “II (ratio between 2 and 10 fold)”; the “Selectivity Class DYRK1A vs. DYRK1B” value is “II (ratio between 2 and 10 fold)”. In addition, the IC50 on CLK1 is over 0.05 µM.
For `COC[C@H](NC1=N/C(=C\c2ccc3nccnc3c2)C(=O)N1)c1ccccc1` [Compound 26, (4Z)-2-[[(1R)-2-methoxy-1-phenyl-ethyl]amino]-4-(quinoxalin-6-ylmethylene)-1H-imidazol-5-one], on DYRK1A, the IC50 is over 0.05 µM; the “Selectivity Class DYRK1A vs. CLK1” value is “III (ratio between 0.5 and 2 fold)”; the “Selectivity Class DYRK1A vs. DYRK1B” value was “II (ratio between 2 and 10 fold)”. Further, the IC50 on CLK1 is over 0.05 µM.
On to `O=C1NC(NC[C@H](O)c2ccccc2)=N/C1=C\c1ccc2nccnc2c1` [Compound 27, (4Z)-2-[[(2R)-2-hydroxy-2-phenyl-ethyl]amino]-4-(quinoxalin-6-ylmethylene)-1H-imidazol-5-one], for which, at DYRK1A, the IC50 is over 0.05 µM; the “Selectivity Class DYRK1A vs. CLK1” value was “III (ratio between 0.5 and 2 fold)”; the “Selectivity Class DYRK1A vs. DYRK1B” value was “II (ratio between 2 and 10 fold)”. Besides, the IC50 at CLK1 is over 0.05 µM.
With `NC[C@H](NC1=N/C(=C\c2ccc3nccnc3c2)C(=O)N1)c1ccccc1` [Compound 28, (4Z)-2-[[(1R)-2-amino-1-phenyl-ethyl]amino]-4-(quinoxalin-6-ylmethylene)-1H-imidazol-5-one dihydrochloride], on DYRK1A, the IC50 lay within 0.025 to 0.05 µM; the “Selectivity Class DYRK1A vs. CLK1” value is “III (ratio between 0.5 and 2 fold)”; the “Selectivity Class DYRK1A vs. DYRK1B” value is “II (ratio between 2 and 10 fold)”. The IC50 at CLK1 fell in the range of 0.025 to 0.05 µM.
As to `NC[C@@H](NC1=N/C(=C\c2ccc3nccnc3c2)C(=O)N1)c1ccccc1` [Compound 29, (4Z)-2-[[(1S)-2-Amino-1-phenyl-ethyl]amino]-4-(quinoxalin-6-ylmethylene)-1H-imidazol-5-one dihydrochloride], at DYRK1A, the IC50 lay within 0.025 to 0.05 µM; the “Selectivity Class DYRK1A vs. CLK1” value was “III (ratio between 0.5 and 2 fold)”; the “Selectivity Class DYRK1A vs. DYRK1B” value is “II (ratio between 2 and 10 fold)”. For the same compound, at CLK1, the IC50 is over 0.05 µM.
With `Cc1cnc(CNC2=N/C(=C\c3ccc4nccnc4c3)C(=O)N2)cn1` [Compound 30, (4Z)-2-[(5-methylpyrazin-2-yl)methylamino]-4-(quinoxalin-6-ylmethylene)-1H-imidazol-5-one], on DYRK1A, the IC50 is over 0.05 µM; the “Selectivity Class DYRK1A vs. CLK1” value is “IV (ratio between 0.1 and 0.5 fold)”; the “Selectivity Class DYRK1A vs. DYRK1B” value is “II (ratio between 2 and 10 fold)”. Besides, the IC50 on CLK1 is over 0.05 µM.
On to `Cc1csc(CNC2=N/C(=C\c3ccc4nccnc4c3)C(=O)N2)n1` [Compound 31, (4Z)-2-[(4-methylthiazol-2-yl)methylamino]-4-(quinoxalin-6-ylmethylene)-1H-imidazol-5-one], for which, on DYRK1A, the IC50 is over 0.05 µM; the “Selectivity Class DYRK1A vs. CLK1” value is “III (ratio between 0.5 and 2 fold)”; the “Selectivity Class DYRK1A vs. DYRK1B” value is “III (ratio between 0.5 and 2 fold)”. Moreover, the IC50 at CLK1 is over 0.05 µM.
For the compound `O=C1NC(NCC2CCOCC2)=N/C1=C\c1ccc2nccnc2c1` [Compound 32, (4Z)-4-(quinoxalin-6-ylmethylene)-2-(tetrahydropyran-4-ylmethylamino)-1H-imidazol-5-one], at DYRK1A, the IC50 is over 0.05 µM; the “Selectivity Class DYRK1A vs. CLK1” value was “III (ratio between 0.5 and 2 fold)”; the “Selectivity Class DYRK1A vs. DYRK1B” value was “II (ratio between 2 and 10 fold)”. Moreover, the IC50 at CLK1 is over 0.05 µM.
As to `CN1CCN(c2ccc(NC3=N/C(=C\c4ccc5nccnc5c4)C(=O)N3)cc2)CC1` [Compound 33, (4Z)-2-[4-(4-Methylpiperazin-1-yl)anilino]-4-(quinoxalin-6-ylmethylene)-1H-imidazol-5-one], on DYRK1A, the IC50 lay within 0.025 to 0.05 µM; the “Selectivity Class DYRK1A vs. CLK1” value is “II (ratio between 2 and 10 fold)”; the “Selectivity Class DYRK1A vs. DYRK1B” value was “II (ratio between 2 and 10 fold)”. On CLK1, the IC50 is over 0.05 µM.
Regarding `Cn1ccc(NC2=N/C(=C\c3ccc4nccnc4c3)C(=O)N2)n1` [Compound 34, (4Z)-2-[(1-methylpyrazol-3-yl)amino]-4-(quinoxalin-6-ylmethylene)-1H-imidazol-5-one], on DYRK1A, the IC50 is over 0.05 µM; the “Selectivity Class DYRK1A vs. CLK1” value was “III (ratio between 0.5 and 2 fold)”; the “Selectivity Class DYRK1A vs. DYRK1B” value was “II (ratio between 2 and 10 fold)”. Also, the IC50 on CLK1 is over 0.05 µM.
Consider `O=C1NC(Nc2ccccn2)=N/C1=C\c1ccc2nccnc2c1` [Compound 35, (4Z)-2-(2-pyridylamino)-4-(quinoxalin-6-ylmethylene)-1H-imidazol-5-one], for which, at DYRK1A, the IC50 is over 0.05 µM; the “Selectivity Class DYRK1A vs. CLK1” value was “II (ratio between 2 and 10 fold)”; the “Selectivity Class DYRK1A vs. DYRK1B” value is “II (ratio between 2 and 10 fold)”. In addition, the IC50 on CLK1 was over 0.05 µM.
For `O=C1NC(N[C@@H]2CCOC2)=N/C1=C\c1ccc2nccnc2c1` [Compound 37, (4Z)-4-(quinoxalin-6-ylmethylene)-2-[[(3R)-tetrahydrofuran-3-yl]amino]-1H-imidazol-5-one], at DYRK1A, the IC50 is over 0.05 µM; the “Selectivity Class DYRK1A vs. CLK1” value was “III (ratio between 0.5 and 2 fold)”; the “Selectivity Class DYRK1A vs. DYRK1B” value is “II (ratio between 2 and 10 fold)”. The IC50 on CLK1 was over 0.05 µM.
As for `O=C1NC(N[C@H]2CCCOC2)=N/C1=C\c1ccc2nccnc2c1` [Compound 38, (4Z)-4-(quinoxalin-6-ylmethylene)-2-[[(3S)-tetrahydropyran-3-yl]amino]-1H-imidazol-5-one], on DYRK1A, the IC50 was over 0.05 µM; the “Selectivity Class DYRK1A vs. CLK1” value was “III (ratio between 0.5 and 2 fold)”; the “Selectivity Class DYRK1A vs. DYRK1B” value is “II (ratio between 2 and 10 fold)”. The IC50 at CLK1 is over 0.05 µM.
